Results taken from US10314870B2, “Tropism modified cancer terminator virus (Ad.5/3 CTV;AD.5/3-CTV-M7)” (priority 2012, dated 2019).

Test system: GBM6 intra-cerebral tumors
Assay: Survival of mice with orthotopic GBM6 tumors after intratumoral virus infusion
Assay type: in vivo, athymic mice
Settings: virus 1×10^8 pfu intratumoral day 7; SAHA 25 mg/kg QD PO for 5 days
Protocol: FIG. 24. SAHA enhances MDA-7/IL-24 toxicity in vivo. GBM6 cells (0.5×10^6) were implanted into the brains of athymic mice. Seven days later tumors were infused with 1×10^8 pfu of either Ad.5/3-cmv or Ad.5/3-mda-7. Twenty-four h after virus infusion animals were treated with vehicle diluent (cremophore, PO) or vorinostat (SAHA, 25 mg/kg QD, PO) for 5 days. Animal survival was monitored on a daily basis (n=2, 8 animals total).
FIG. 25A-E. Ad.5/3-PEG-E1A-mda-7 (Ad.5/3-CTV; Ad.5/3-CTV-M7) prolongs animal survival in a dose-dependent fashion and does so to a greater extent than Ad.5/3- mda-7. Panel A. GBM6-luciferase cells (0.5 ×10^6) were implanted into the brains of athymic mice. Seven days later tumors were infused with 1×10^8 pfu of either: Ad.5/3-cmv: Ad.5/3-mda-7; Ad.5/3-PEG-E1A; or Ad.5/3-PEG-E1A-mda-7 (Ad.5/3-CTV; Ad.5/3-CTV-M7). On the days indicated in the graph animals were injected with luciferin (150 mg/kg) and were imaged 15 min later following placement into an IVIS Xenogen imager. […] Animal survival was monitored on a daily basis (n=2, 6 animals total) ((a) p<0.04 greater survival than Ad.5/3-cmv; (b) p<0.0008 greater survival than Ad.5/3-cmv; (c) p<0.04 greater survival than Ad.5/3-mda-7; (d) p<0.004 greater survival than Ad.5/3-mda-7; (e) p<0.0008 greater survival than Ad.5/3-PEG-E1A-mda-7 (Ad.5/3-CTV; Ad.5/3-CTV-M7) at a dose of 3×10^8 pfu). […]

SMILES: O=C(CCCCCCC(=O)Nc1ccccc1)NO [SAHA]
- animal survival: did not significantly enhance animal survival
